Measured values: patent publication US9228998B2, “Drug monitoring methods using the promyelocytic leukemia protein as a redox sensor” (Institut National de la Sante et de la Recherche Medicale …, priority 2010, dated 2016)

Tests used:
PML = molecular target: T1, PML (Homo sapiens, UniProt P29590); assay: Western-blot analysis under non-reducing conditions of PML-transfected CHO cells (disulfide-linked PML complexes); type: cell-based; design: amounts of covalent PML multimers: concentration or dose not given beside the values; conditions: for amounts of covalent PML multimers: short exposure, CHO cells transiently overexpressing PML; for covalent PML homodimers: transiently PML- or PML3KR-transfected cells, non-reducing conditions; for formation of covalent multimers: pretreatment, transiently PML-transfected CHO cells
T1 construct: expressed in transfected cells; host or cells: CHO (transient)
T1 sequence (P29590 1-641 isoform P29590-9): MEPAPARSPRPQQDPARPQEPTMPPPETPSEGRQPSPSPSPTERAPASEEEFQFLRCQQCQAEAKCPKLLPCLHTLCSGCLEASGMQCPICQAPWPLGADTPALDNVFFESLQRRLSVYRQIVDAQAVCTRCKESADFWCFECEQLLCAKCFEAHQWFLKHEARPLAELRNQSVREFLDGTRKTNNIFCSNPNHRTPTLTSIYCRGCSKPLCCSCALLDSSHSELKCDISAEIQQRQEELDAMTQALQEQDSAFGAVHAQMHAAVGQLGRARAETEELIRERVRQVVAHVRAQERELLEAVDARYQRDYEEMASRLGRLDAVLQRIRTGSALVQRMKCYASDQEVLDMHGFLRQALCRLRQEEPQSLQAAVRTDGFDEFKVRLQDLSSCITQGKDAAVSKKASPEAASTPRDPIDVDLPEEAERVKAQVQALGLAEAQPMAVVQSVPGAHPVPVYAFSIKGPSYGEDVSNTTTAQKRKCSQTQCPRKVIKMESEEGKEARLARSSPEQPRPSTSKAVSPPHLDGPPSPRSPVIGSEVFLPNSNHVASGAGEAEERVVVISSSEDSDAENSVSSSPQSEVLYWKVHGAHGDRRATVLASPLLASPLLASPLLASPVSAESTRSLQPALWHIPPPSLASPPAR
Method: (§1) HeLa, MRC5, CHO, COS, SaOS and Pml−/− MEF cells were cultured in 10% Fetal calf serum DMEM medium (Gibco). Plasmid transfections were performed in CHO or COS with Effectene transfection reagent (Qiagen). Stable CHO cell lines, expressing the PML isoform, or its mutants, were obtained by cotransfection of pSG5-PMLΔSIM, pSG5-3K/RΔSIM, pSG5-C212A or pSG5-B1 with the Dsp-Hygro vector; selected for 2 weeks in […] hygromycin-containing media. Clones were selected for similar PML expression levels. PML WT, PML C60A, PMLΔCC and PML 3K/R stable expressing cell lines were described previously^25. MRC5 or SaOS were grown on coverslides and treated with 400 U/ml IFNg for 48 h and IFNa for 24 h to induce PML expression. Primary mouse APL blasts were obtained from serially transplanted APLs^16 and then cultured in RPMI medium, 10% FCS supplemented with IL-3, IL-6 and SCF (Gibco). Infection of immortalized pml−/− MEFs or primary progenitors was performed with retroviruses produced by CaCl2 transfection of Plat-E cells by with the MSCV-PML/RARA retroviral vector^16. Pml−/− or +/+ MEF cells were similarly transduced with MSCV-PML or PML mutants.
(§2) As2O3 (Fluka) treatments were performed at 1 mM or 10 mM for 1 h. H2O2 from SIGMA-Aldrich was performed for 30 min at 0.1, 1 or 10 mM as indicated, Phenylarsine oxide (PAO) was purchased from SIGMA, solubilized at 50 mg/ml in DMSO and used at 0.1 mM, 1 mM or 10 mM for 1 h, CdCl2 from Flucka, was used at a final concentration of 10 mM. Cells were treated with 10 mM Lactacystin (Calbiochem) overnight, and with 50 mg/ml ready-made cycloheximide (SIGMA) as indicated. Pre-treatments with 100 mM N-ethyl maleimide (NEM) (SIGMA) for 30 min were carried out before adding As2O3 or H2O2. TC-FlAsH (FlAs) was from Molecular Probes; cells growing on coverslides were treated with 1 mM for 1 h, washed in PBS before PFA fixation. Dithiarsolan-biotin conjugate (arsenic-biotin) was kindly given by Kenneth L. Kirk^53, solubilized in DMSO to a 5 mM stock solution, and used on cell culture at 10 mM for 1 h.
Cell lysates were resolved on 7%, 3 to 10% gradient or 12% SDS-PAGE gels and transferred onto nitrocellulose membranes. Detection was performed with the chemi-luminescent substrate SuperSignal WestPico (Pearce), using previously described home made mouse and chicken anti-hPML antibodies^15,25, the PML isoform-specific antibodies were characterized previously^29. For analysis under non-reducing conditions, b-Mercapto-Ethanol or DTT was omitted from the standard Laemmli buffer. In situ nuclear matrix was prepared as for immunofluorescence, but finally resuspended in Laemmli buffer. Purifications of 6M Guanidium-HCl denatured (His×6)-tagged proteins were done with Ni-NTA-agarose from Qiagen, as previously^25. The purification of the arsenic-bound proteins were performed from As-biotin treated CHO-PML or transiently pSG5-PML wt or C212A transfected COS cells. Cells were lysed in 2% SDS-containing RIPA with Protease Inhibitor Cocktail (PIC) (Roche Applied Science), denatured at 95° C. for 5 min to release nuclear matrix-associated PML. Streptavidin-agarose (Molecular Probes) was added to the […] lysates for 30 min to 1 h, washed three times in RIPA and arsenic bound proteins were eluted in Laemmli buffer.
Intermolecular disulfide bonds were previously implicated in stabilization of the nuclear matrix. […] We then compared total and nuclear matrix extracts from transiently transfected CHO cells under non-reducing conditions and observed that the matrix fraction was dramatically enriched in covalent PML dimers.

endogenous murine PML = molecular target: T2, endogenous murine PML (Mus musculus, UniProt Q60953); assay: NB formation by endogenous murine PML in bone marrow cells of treated mice; type: in vivo; conditions: normal bone marrow cells of treated mice
T2 construct: from tissue; host or cells: mouse bone marrow cells (cytospins, FVB/NICO mice)
T2 sequence (Q60953 1-885): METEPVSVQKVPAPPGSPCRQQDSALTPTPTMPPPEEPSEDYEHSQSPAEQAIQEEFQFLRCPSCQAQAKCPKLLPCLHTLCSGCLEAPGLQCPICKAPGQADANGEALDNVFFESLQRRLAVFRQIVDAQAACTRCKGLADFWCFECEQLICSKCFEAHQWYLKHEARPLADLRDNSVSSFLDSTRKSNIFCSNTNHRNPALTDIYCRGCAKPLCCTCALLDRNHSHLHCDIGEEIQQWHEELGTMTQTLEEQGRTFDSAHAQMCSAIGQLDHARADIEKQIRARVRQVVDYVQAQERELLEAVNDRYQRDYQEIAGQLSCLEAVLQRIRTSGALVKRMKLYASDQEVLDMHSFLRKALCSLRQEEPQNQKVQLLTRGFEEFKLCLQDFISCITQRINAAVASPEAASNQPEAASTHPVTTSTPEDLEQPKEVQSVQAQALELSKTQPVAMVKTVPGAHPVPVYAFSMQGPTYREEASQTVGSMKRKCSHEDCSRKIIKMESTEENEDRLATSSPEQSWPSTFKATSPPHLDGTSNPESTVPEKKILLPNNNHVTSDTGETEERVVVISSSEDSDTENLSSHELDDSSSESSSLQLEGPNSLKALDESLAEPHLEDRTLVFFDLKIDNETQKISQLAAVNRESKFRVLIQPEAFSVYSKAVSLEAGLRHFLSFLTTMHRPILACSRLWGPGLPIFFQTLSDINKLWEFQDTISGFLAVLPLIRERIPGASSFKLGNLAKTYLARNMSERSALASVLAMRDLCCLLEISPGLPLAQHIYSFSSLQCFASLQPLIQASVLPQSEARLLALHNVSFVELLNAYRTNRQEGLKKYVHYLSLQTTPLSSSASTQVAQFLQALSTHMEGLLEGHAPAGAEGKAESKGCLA
Method: (§3) Mouse experiments were repeated 3 times. Animal handling was done according to the guidelines of institutional animal care committees, using protocols approved by “Comité Régional d'Ethique Expérimentation Animale (CREEA) no 4”. 25 mg/kg Paraquat (SIGMA) was daily intraperitoneally injected in PML/RARA and PML/RARA-S77A leukemic mice^17 (to be fully described elsewhere). In vivo imaging was performed using a Xenogen IVIS100 facility to ensure similar tumor mass pre-treatment. Mice were treated with 150 mg/kg for 1 h before bone marrow cytospins (from FVB/NICO) and […] tumor cryosections (NUDE/SWISS) immuno-histochemistry; CHO-PML xenografts were performed as before^42.
(§4) Disulfide bonds are oxidant-sensitive. […] As ROS status is profoundly altered in cell culture, we examined NBs in vivo in basal conditions and after acute induction of ROS. […] Thus, oxidation-triggered disulfide bonds in PML regulate its partitioning between the nucleoplasm and nuclear matrix associated NBs.
(§5) We next investigated whether oxidants enhance disulfide-bound PML multimerization. […] We thus examined whether paraquat, an acute ROS inducer, would regulate NB formation in vivo, a setting where ROS levels are likely more controlled.

PML NBs [1] = molecular target: T3, PML NBs (Homo sapiens, UniProt P29590); assay: NB formation in CHO-PML xenografts in nude mice; type: in vivo; conditions: treatment of nude mice bearing CHO-PML xenografts
T3 construct: expressed in transfected cells
T3 sequence (P29590 1-641 isoform P29590-9): T1 sequence (P29590 1-641 isoform P29590-9)
Method: as §3, §4, §5

PML NBs [2] = molecular target: T3, PML NBs; assay: PML NBs in cultured cells (CHO-PML), immunofluorescence; type: cell-based
Method: as §1, §2
Immunofluorescence, electronic microscopy and antibodies were previously described^15. In situ nuclear matrix preparations were prepared as described^1. Confocal analyses were performed on a LSM510 Meta laser microscope (Carl Zeiss MicroImaging, Inc.) with a plan apochromat 63X N.A.1.4 oil immersion objective and increased resolution images were obtained with deconvolution software (Autodeblur, Image Quant) using blind iterative algorithms.

Row | SMILES | amounts of covalent PML multimers (PML) | covalent PML homodimers (PML) | NB formation by endogenous murine PML (endogenous murine PML) | NB formation in CHO-PML xenografts (PML NBs [1]) | NBs in cultured cells with strong oxidants (PML NBs [2]) | formation of covalent multimers (PML) | other results
1 | O=[As]O[As]=O (centres unmarked) [As2O3] | massively increased | dramatic increase | Enhanced NB formation | dramatic increase in NB formation | – | – | –
2 | [Cl][Cd][Cl] [CdCl2] | massively increased | – | – | – | disrupt NBs | – | –
3 | OO [H2O2] | massively increased | dramatic increase | – | – | disrupt NBs | – | –
4 | CC(=O)N[C@@H](CS)C(=O)O [NAC, N-acetyl cysteine] | – | – | – | – | – | abrogated | abundance of the high molecular weight PML forms (PML; pretreatment of CHO cells prior to PML transfection): dramatic decrease; basal NB formation (PML NBs [2]; CHO-PML cells cultured for 10 days with the ROS scavenger): lost basal NB formation; NBs after wash-out (PML NBs [2]; CHO-PML cells, 3 day wash-out after 10 days culture): NBs were restored
5 | CCN1C(=O)C=CC1=O [NEM, N-ethyl maleimide] | – | – | – | – | – | abrogated | As2O3 or H2O2-enhanced homodimer formation (PML; thiol alkylator added with As2O3 or H2O2): abrogated; basal PML NBs (PML NBs [2]; untreated cells / CHO-PML cells, 1 hr treatment): disrupted basal PML NBs
6 | C[n+]1ccc(-c2cc[n+](C)cc2)cc1 [Paraquat] | – | – | Identical results | dramatic increase in NBs | – | – | NB formation by endogenous murine PML (endogenous murine PML; listed as paraquat): Enhanced NB formation; NB formation in CHO-PML xenografts (PML NBs [1]; listed as paraquat): dramatic increase in NB formation
